In ChEMBL document CHEMBL5584228, “Novel saturated 1,2,4-trioxanes and their antimalarial activity against multidrug resistant Plasmodium yoelii nigeriensis in Swiss mice model via oral route” (2024):
Activity calls are given as the source filed them. The calls are words filed in the database; no cut-off is given here.

Tests used:
[1] = test system: Plasmodium yoelii nigeriensis; assay: Antimalarial activity against multi-drug resistant Plasmodium yoelii nigeriensis infected in swiss mouse model assessed as suppression of parasitemia at 96 mg/kg, po administered for 4 days relative to control; format: functional; settings: time 4 day
[2] = test system: Plasmodium yoelii nigeriensis; assay: Antimalarial activity against multi-drug resistant Plasmodium yoelii nigeriensis infected in swiss mouse model at 96 mg/kg, po administered for 4 days and measured within 6 to 8 days; format: functional, organism-based; settings: time 6-8 day
[3] = test system: Plasmodium yoelii nigeriensis; assay: Antimalarial activity against multi-drug resistant Plasmodium yoelii nigeriensis infected in swiss mouse model assessed as suppression of parasitemia at 48 mg/kg, po administered for 4 days relative to control; format: functional; settings: time 4 day
[4] = test system: Plasmodium yoelii nigeriensis; assay: Antimalarial activity against multi-drug resistant Plasmodium yoelii nigeriensis infected in swiss mouse model assessed as suppression of parasitemia at 12 mg/kg, po administered for 4 days relative to control; format: functional; settings: time 4 day
[5] = test system: Plasmodium yoelii nigeriensis; assay: Antimalarial activity against multi-drug resistant Plasmodium yoelii nigeriensis infected in swiss mouse model assessed as suppression of parasitemia at 24 mg/kg, po administered for 4 days relative to control; format: functional; settings: time 4 day
[6] = test system: Plasmodium yoelii nigeriensis; assay: Antimalarial activity against multi-drug resistant Plasmodium yoelii nigeriensis infected in swiss mouse model at 24 mg/kg, po administered for 4 days and measured within 6 to 8 days; format: functional, organism-based; settings: time 6-8 day
[7] = test system: Plasmodium yoelii nigeriensis; assay: Antimalarial activity against multi-drug resistant Plasmodium yoelii nigeriensis infected in swiss mouse model at 48 mg/kg, po administered for 4 days and measured within 6 to 8 days; format: functional, organism-based; settings: time 6-8 day
[8] = test system: Plasmodium yoelii nigeriensis; assay: Antimalarial activity against multi-drug resistant Plasmodium yoelii nigeriensis infected in swiss mouse model assessed as suppression of parasitemia at 6 mg/kg, po administered for 4 days relative to control; format: functional; settings: time 4 day
[9] = test system: Plasmodium yoelii nigeriensis; assay: Antimalarial activity against multi-drug resistant Plasmodium yoelii nigeriensis infected in swiss mouse model assessed as animal survival at 12 to 48 mg/kg, po administered for 4 days and measured after 28 days; format: functional; settings: dose 12-48 mg/kg, time 28 day
[10] = test system: Plasmodium yoelii nigeriensis; assay: Antimalarial activity against multi-drug resistant Plasmodium yoelii nigeriensis infected in swiss mouse model at 12 mg/kg, po administered for 4 days and measured within 6 to 8 days; format: functional, organism-based; settings: time 6-8 day

## C=C(c1ccc(Oc2ccccc2)cc1)C1COC2(CCCCC2)OO1 (stereo not drawn)
[1]
  Activity: 100%

## C[C@@H](c1ccc(Oc2cccc3ccccc23)cc1)C1COC2(CCCC2)OO1 (stereo partly drawn)
[1]
  Activity: 100%
[2]
  Activity: inactive

## C[C@H](c1ccc(Oc2ccc(-c3ccccc3)cc2)cc1)C1COC2(CCCC2)OO1 (stereo partly drawn)
[3]
  Activity: 100%
[4]
  Activity: 60%
[5]
  Activity: 100%

## C[C@@H](c1ccc(Oc2cccc3ccccc23)cc1)C1COC2(OO1)C1CC3CC(C1)CC2C3 (stereo partly drawn)
[1]
  Activity: 70%
[2]
  Activity: inactive

## C=C(c1ccc(Oc2ccc3ccccc3c2)cc1)C1COC2(CCCC2)OO1 (stereo not drawn)
[3]
  Activity: 100%
[1]
  Activity: 100%
[6]
  Activity: inactive
[7]
  Activity: Active
[2]
  Activity: Active
[5]
  Activity: 100%

## C=C(c1ccc(Oc2cccc3ccccc23)cc1)C1COC2(OO1)C1CC3CC(C1)CC2C3 (stereo not drawn)
[1]
  Activity: 93.15%
[2]
  Activity: inactive

## C[C@H](c1ccc(Oc2ccccc2)cc1)C1COC2(OO1)C1CC3CC(C1)CC2C3 (stereo partly drawn)
[3]
  Activity: 100%
[1]
  Activity: 100%
[2]
  Activity: Active

## C=C(c1ccc(Oc2ccc(-c3ccccc3)cc2)cc1)C1COC2(OO1)C1CC3CC(C1)CC2C3 (stereo not drawn)
[1]
  Activity: 100%

## C[C@@H](c1ccc(Oc2cccc3ccccc23)cc1)C1COC2(CCCCC2)OO1 (stereo partly drawn)
[1]
  Activity: 100%
[2]
  Activity: inactive

## C[C@H](c1ccc(Oc2ccccc2)cc1)C1COC2(CCCC2)OO1 (stereo partly drawn)
[3]
  Activity: 60%
[1]
  Activity: 100%
[2]
  Activity: Active

## C[C@H](c1ccc(Oc2cccc3ccccc23)cc1)C1COC2(CCCC2)OO1 (stereo partly drawn)
[3]
  Activity: 100%
[4]
  Activity: 80%
[5]
  Activity: 100%

## C[C@H](c1ccc(Oc2ccc3ccccc3c2)cc1)C1COC2(OO1)C1CC3CC(C1)CC2C3 (stereo partly drawn)
[3]
  Activity: 60%
[1]
  Activity: 100%
[2]
  Activity: Active

## C[C@H](c1ccc(Oc2cccc3ccccc23)cc1)C1COC2(OO1)C1CC3CC(C1)CC2C3 (stereo partly drawn)
[1]
  Activity: 100%

## C=C(c1ccc(Oc2ccccc2)cc1)C1COC2(CCCC2)OO1 (stereo not drawn)
[1]
  Activity: 100%

## C[C@@H](c1ccc(Oc2ccc3ccccc3c2)cc1)C1COC2(CCCC2)OO1 (stereo partly drawn)
[3]
  Activity: 100%
[1]
  Activity: 100%
[2]
  Activity: Active

## C[C@@H](c1ccc(Oc2ccc(-c3ccccc3)cc2)cc1)C1COC2(OO1)C1CC3CC(C1)CC2C3 (stereo partly drawn)
[1]
  Activity: 90%
[2]
  Activity: inactive

## C[C@@H](c1ccc(Oc2ccc(-c3ccccc3)cc2)cc1)C1COC2(CCCCC2)OO1 (stereo partly drawn)
[1]
  Activity: 100%
[2]
  Activity: inactive

## C=C(c1ccc(Oc2cccc3ccccc23)cc1)C1COC2(CCCCC2)OO1 (stereo not drawn)
[1]
  Activity: 92.81%
[2]
  Activity: inactive

## CCO[C@H]1O[C@@H]2O[C@@]3(C)CC[C@H]4[C@H](C)CC[C@@H]([C@H]1C)[C@@]24OO3 [ARTEMOTIL]
[3]
  Activity: 100%
[7]
  Activity: Active
[5]
  Activity: 100%

## C[C@H](c1ccc(Oc2ccccc2)cc1)C1COC2(CCCCC2)OO1 (stereo partly drawn)
[3]
  Activity: 80%
[1]
  Activity: 100%
[2]
  Activity: Active

## C[C@H](c1ccc(Oc2ccc(-c3ccccc3)cc2)cc1)C1COC2(CCCCC2)OO1 (stereo partly drawn)
[1]
  Activity: 100%

## C=C(c1ccc(Oc2cccc3ccccc23)cc1)C1COC2(CCCC2)OO1 (stereo not drawn)
[3]
  Activity: 100%
[1]
  Activity: 100%
[6]
  Activity: inactive
[7]
  Activity: Active
[2]
  Activity: Active
[5]
  Activity: 100%

## C[C@@H](c1ccc(Oc2ccccc2)cc1)C1COC2(CCCCC2)OO1 (stereo partly drawn)
[1]
  Activity: 100%
[2]
  Activity: inactive

## C=C(c1ccc(Oc2ccc(-c3ccccc3)cc2)cc1)C1COC2(CCCC2)OO1 (stereo not drawn)
[3]
  Activity: 100%
[1]
  Activity: 100%
[7]
  Activity: inactive
[2]
  Activity: Active

## C[C@H](c1ccc(Oc2ccc3ccccc3c2)cc1)C1COC2(CCCC2)OO1 (stereo partly drawn)
[3]
  Activity: 100%
[4]
  Activity: 100%
[8]
  Activity: 60%
[9]
  Survival: >28 days
[10]
  Activity: Active
[5]
  Activity: 100%

## C[C@H](c1ccc(Oc2ccc(-c3ccccc3)cc2)cc1)C1COC2(OO1)C1CC3CC(C1)CC2C3 (stereo partly drawn)
[3]
  Activity: 100%
[1]
  Activity: 100%
[2]
  Activity: Active

## C[C@H](c1ccc(Oc2cccc3ccccc23)cc1)C1COC2(CCCCC2)OO1 (stereo partly drawn)
[1]
  Activity: 100%

## C[C@@H](c1ccc(Oc2ccccc2)cc1)C1COC2(CCCC2)OO1 (stereo partly drawn)
[1]
  Activity: 80%
[2]
  Activity: inactive

## C[C@@H](c1ccc(Oc2ccc(-c3ccccc3)cc2)cc1)C1COC2(CCCC2)OO1 (stereo partly drawn)
[1]
  Activity: 100%
[2]
  Activity: inactive

## C=C(c1ccc(Oc2ccccc2)cc1)C1COC2(OO1)C1CC3CC(C1)CC2C3 (stereo not drawn)
[1]
  Activity: 100%

## C[C@@H](c1ccc(Oc2ccc3ccccc3c2)cc1)C1COC2(OO1)C1CC3CC(C1)CC2C3 (stereo partly drawn)
[1]
  Activity: 100%
[2]
  Activity: inactive

## C=C(c1ccc(Oc2ccc3ccccc3c2)cc1)C1COC2(OO1)C1CC3CC(C1)CC2C3 (stereo not drawn)
[1]
  Activity: 100%

## C[C@@H](c1ccc(Oc2ccccc2)cc1)C1COC2(OO1)C1CC3CC(C1)CC2C3 (stereo partly drawn)
[1]
  Activity: 100%
[2]
  Activity: inactive

## C=C(c1ccc(Oc2ccc(-c3ccccc3)cc2)cc1)C1COC2(CCCCC2)OO1 (stereo not drawn)
[1]
  Activity: 84.39%
[2]
  Activity: inactive
